# Assay results published in patent publication US10154970B2, “Methods for immunomodulation of cancer and infectious disease therapy” (The Regents of the University of California, priority 2014, dated 2018).
# Legend:
# IL-6 = test system: IL-6
# Method: (§1) FIG. 6. Effect of TRIP and PV combination treatment on serum cytokine levels. Serum cytokines were assessed by multiplex immunoassay 48 hours following the final dose of PV, which was administered as 8 weekly 10-μg doses. TRIP was administered daily for the last 14 days of the study.
# (§2) A total of 43 wild type C57BL/6 mice were assigned to four different treatment groups: Control (n=10); and TRIP (i.e., ospemifene) 10, 50, and 100 mg/kg (n=11, all TRIP groups). All mice received a full course of tecemotide (L-BLP25) peptide vaccine (PV) immunotherapy (eight weekly 10 μg doses administered subcutaneously (s.c.) as described in Wurz G T. et al., J. Transl. Med., 11:64 (2013)). During the final 16 days of immunotherapy, mice received daily oral doses of TRIP according to treatment group assignment. TRIP oral dosing solutions were prepared by dissolving an appropriate amount of the drug in pure dimethyl sulfoxide (DMSO) and then adding peanut oil to the desired final concentration (final DMSO concentration was 2%). All doses were administered in a volume of 100 μl using 20-gauge stainless steel oral feeding needles. Control mice were given diluent only. Forty-eight hours following the final dose of PV, all mice were euthanized for the collection of blood for cytokine analysis by multiplex and spleens for assessing immune response by enzyme-linked immunosorbent spot (ELISpot) assay.
# IFN-γ [1] = conditions: non-tumor bearing mice, 48 hours after final PV dose
# Method: as §1, §2
# IFN-γ [2] = assay: Example 6: serum IFN-γ on Day 28 in allograft-bearing mice; assay type: in vivo, C57BL/6 wild type mice; conditions: Day 28, 48 hours after final PV dose; TRIP 100 mg/kg
# Method: Each of four weekly 100-μg injections of peptide vaccine (PV) was preceded by three daily oral doses of TRIP (100 mg/kg). All mice were implanted with breast cancer allografts on Day 0, and serum was collected on Day 28 following four weeks of treatment. […] For all treatment groups, n=8.
# A total of 32 female C57BL/6 wild type mice were assigned to four treatment groups (n=8): Control; TRIP (i.e., ospemifene) 100 mg/kg; tecemotide (L-BLP25) peptide vaccine (PV) (100 μg); and TRIP 100 mg/kg combined with 100 μg PV. On Day 0 of the study, all 32 mice were subcutaneously implanted with 1.0×10^6 mouse breast cancer cells expressing the PV target antigen (BP25). Two days later, mice began a three-day regimen of once daily 100 mg/kg TRIP administered orally. On Day 5, mice were administered their first weekly 100 μg dose of PV by subcutaneous injection. This treatment schedule was repeated for a total of four weeks. […] All mice were euthanized on Day 28 for the collection of serum and spleens to assess immune response to treatment. Immune response was assessed by performing IFN-γ ELISpot.
# IFN-γ [3] = assay: IFN-γ mRNA expression in Jurkat cells by qRT-PCR, normalized with GAPDH; assay type: cell-based, human
# Method: FIG. 1. Interferon gamma (IFN-γ) and interleukin (IL)-2 expression in human Jurkat cells following exposure to TRIP in vitro. Jurkat cells (2×10^6) were treated with different concentrations of TRIP as indicated for 24 hours. (A) IFN-γ and (B) IL-2 mRNA expression levels were detected by quantitative real-time polymerase chain reaction (qRT-PCR) and normalized with the expression of GAPDH. *p<0.05, **p<0.01, ***p<0.001.
# FIG. 2. Effect of tamoxifen on TRIP-induced expression of IFN-γ in vitro. Jurkat cells (2×10^6) were treated with TRIP (2.5 μM) and/or tamoxifen (2.5 μM) for 24 hours. The expression levels of IFN-γ were analyzed by qRT-PCR and normalized with GAPDH. **p<0.01, ***p<0.005.
# FIG. 3. Effects of TRIP alone and in combination with trifluoperazine (TFP) or LY294002 (LY) on IFN-γ and IL-2 in human Jurkat cells in vitro. Jurkat cells (2×10^6) were pretreated with different concentrations of (A, B) TFP (0, 0.1, 1.0, 5.0, and 10.0 μM) and (C, D) LY294002 (0, 1, 5, 10, and 25 μM) for 1 hour, then incubated with medium containing 2.5 μM of TRIP for 24 hours. (A, C) IFN-γ and (B, D) IL-2 mRNA expression levels were detected by qRT-PCR and normalized with the expression of GAPDH. *p<0.05, **p<0.01, ***p<0.001.
# FIG. 4. Effects of calmodulin, PI3K and MAPK inhibition on TRIP-induced expression of IFN-γ and IL-2 in human Jurkat cells in vitro. Jurkat cells (2×10^6) were pretreated with PD98059 (50 μM), TFP (10 μM) and LY294002 (25 μM) for 1 hour, then incubated with medium containing 2.5 μM of TRIP for 24 hours. (A) IFN-γ and (B) IL-2 mRNA expression levels were detected by qRT-PCR and normalized with the expression of GAPDH. **p<0.01, ***p<0.001, ****p<0.0001.
# The potential immune regulating effects of TRIP and the possible mechanism(s) involved were determined with in vitro experiments examining the expression of T cell activating cytokines in human acute T cell leukemia Jurkat cells. The expression of IFN-γ and IL-2 RNA following exposure to increasing concentrations of TRIP (i.e., ospemifene) were first examined, followed by the effects of combining tamoxifen with TRIP on the expression of these cytokines. Different inhibitors of key T cell activation pathways—trifluoperazine (TFP), an inhibitor of calmodulin, LY294002, an inhibitor of PI3K, and PD98059, a MAPK inhibitor—in combination with TRIP were assessed for their effects on TRIP-induced expression of IFN-γ and IL-2 in Jurkat cells.
# Jurkat cells (2.0×10^6) were treated with different concentrations of TRIP as indicated on the x-axis for 24 hours. (A) IFN-γ and (B) IL-2 mRNA expression levels were detected by quantitative real-time polymerase chain reaction (qRT-PCR) and normalized with the expression of GAPDH. *p<0.05, **p<0.01, ***p<0.001.
# The expression levels of IFN-γ were analyzed by qRT-PCR and normalized with GAPDH. **p<0.01, ***p<0.001.
# T cell activation requires multiple signals including PI3K, MAPK and calcium signaling pathways, and in order to identify the potential mechanism through which TRIP affects immune activation, Jurkat cells (2.0×10^6) were pretreated with different concentrations of TFP (0, 0.1, 1.0, 5.0 and 10.0 μM) (A, B) or LY294002 (0, 1, 5, 10 and 25 μM) (C, D) for one hour, then incubated with medium containing 2.5 μM TRIP for 24 hours. IFN-γ and IL-2 expression levels were detected by qRT-PCR and normalized with the expression of GAPDH. *p<0.05, **p<0.01, ***p<0.001.
# Jurkat cells (2×10^6) were pretreated with PD98059 (50 μM), TFP (10 μM) or LY294002 (25 μM) for one hour, then incubated with medium containing 2.5 μM TRIP for 24 hours. (A) IFN-γ and (B) IL-2 mRNA expression levels were detected by qRT-PCR and normalized with expression of GAPDH. **p<0.01, ***p<0.001, ****p<0.0001.
# The effects on T cell activation of different functional group substitutions on the TRIP chemical structure (Formula Ia) were examined by measuring the expression of IFN-γ and IL-2 RNA in human acute T cell leukemia Jurkat cells in vitro. […]
# [4] = test system: pro-inflammatory cytokines (IL-6, IP-10, MIG, IL-1β, KC)
# Method: Serum was analyzed by multiplex immunoassay 24 hours following the last dose of TRIP at each time point.
# Following induction of lung cancer as described (Wurz G T. et al., J. Transl. Med., 11:64 (2013)), mice were randomized into four treatment groups: Control; and TRIP (i.e., ospemifene) 5, 25, and 50 mg/kg (n=12, all groups). TRIP and control solutions were orally administered by gavage according to treatment group. After 30 days of treatment (Week 20), a total of 16 mice, four from each treatment group, were euthanized, and whole blood was collected by cardiac puncture. The remaining mice continued daily TRIP treatments. An additional 16 mice, four from each treatment group, were euthanized following 60 (Week 24) and 90 (Week 28) days of treatment, and whole blood and livers were collected. Serum samples were subjected to multiplex cytokine analysis for TH1 (IL-2, IL-12, IFN-γ, TNF-α), TH2 (IL-4, IL-5, IL-10, IL-13) and inflammatory cytokines (MIP-1α, IP-10, MIG, IL-1β, IL-6, KC).
# Terminal serum pro-inflammatory cytokines (IL-6, IP-10, MIG, IL-1β, KC) were analyzed 24 hours after the last dose at each time point (FIG. 7).
compound,measurement,setting,value
"OCCOc1ccc(/C(=C(/CCCl)c2ccccc2)c2ccccc2)cc1 [TRIP, Z-2-[4-(4-chloro-1,2-diphenyl-but-1-enyl)-phenoxy]ethanol]","serum concentrations of IL-6, TRIP 100 mg/kg and PV compared to PV alone",IL-6; TRIP 100 mg/kg + PV,significantly lower
same,"serum IL-6 concentrations, TRIP and PV vs PV alone","IL-6; non-tumor bearing mice, 48 hours after final PV dose",dose-dependently decreased
same,"serum IFN-γ levels, TRIP and PV vs PV alone",IFN-γ [1],increased
same,"serum IFN-γ compared to the control and TRIP alone treatment groups, TRIP + PV",IFN-γ [2],significantly increased
same,"expression of IFN-γ compared to control, TRIP+tamoxifen","IFN-γ [3]; Jurkat cells, TRIP 2.5 μM plus tamoxifen 2.5 μM, 24 hours (FIG. 2)",significantly increased
same,IFN-γ RNA expression compared to control,"IFN-γ [3]; Jurkat cells, different concentrations of TRIP, 24 hours, dose-dependent (FIG. 1A)",significantly induced
same,expression of IFN-γ compared to control,"IFN-γ [3]; Jurkat cells, single agent 2.5 μM, 24 hours (FIG. 2)",significantly increased
same,IFN-γ Expression,"IFN-γ [3]; mRNA in Jurkat cells in vitro, relative to control sample without TRIP compound",+++ (strong increase)
same,pro-inflammatory serum cytokine levels,"[4]; TRIP 5, 25, 50 mg/kg daily oral, 30, 60, 90 days, compared to control group",decreasing levels
same,"serum IL-6 levels, control vs all doses of TRIP",[4]; at 28 weeks (90 days of treatment),Differences
